Experimental data as given in patent US20080221063A1, “Heterocyclic Sulfonamide Derivatives As Inhibitors Of Factor Xa” (ASTRAZENECA AB, priority 2005, published 2008).

Biological target: T1, human FXa (Homo sapiens, UniProt P00742)
T1 construct: FXa solution (human FXa, Haematologic Technologies Inc., Essec Junction, Vt., USA); purchased Haematologic Technologies Inc
Assay: Measurement of Factor Xa Inhibition (chromogenic substrate method)
Type: biochemical
Details: chromogenic substrate S-2765, 40 min incubation at 37° C., pH 7.4
Experimental: a) Measurement of Factor Xa Inhibition
The FXa inhibitor potency was measured with a chromogenic substrate method, in a Plato 3300 robotic microplate processor (Rosys AG, CH-8634 Hombrechtikon, Switzerland), using 96-well, half-volume microtiter plates (Costar, Cambridge, Mass., USA; Cat No 3690). Stock solutions of test substance in DMSO (72 μL), 10 mmol/L, alternatively 1 mmol/L were diluted serially 1:3 (24+48 μL) with DMSO to obtain ten different concentrations, which were analyzed as samples in the assay, together with controls and blanks. As control sample melagatran was analysed. The dilutions of each test substance were analyzed consecutively, row-wise on the microtiter plate, with wasp cycles between substances to avoid cross-contamination. […] The final assay concentrations were: test substance 0.0068-133, respectively 0.00068-13.3 μmol/L, S-2765 0.40 mmol/L (KM=0.25 mmol/L) and FXa […]. The linear absorbance increase at 405 n=during 40 min incubation at 37° C. was used for calculation of percent inhibition for the test samples, as compared to references without inhibitor and/or enzyme. […]

T1 sequence (P00742 235-488 limits assumed): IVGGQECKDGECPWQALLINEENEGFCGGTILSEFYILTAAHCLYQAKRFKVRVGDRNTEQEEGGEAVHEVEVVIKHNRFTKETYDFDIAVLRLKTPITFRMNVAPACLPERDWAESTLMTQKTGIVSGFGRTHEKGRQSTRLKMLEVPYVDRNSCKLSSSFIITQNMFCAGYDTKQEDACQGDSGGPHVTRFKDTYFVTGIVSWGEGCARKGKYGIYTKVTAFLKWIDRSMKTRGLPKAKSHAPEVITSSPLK
T1 sequence (P00742 41-179 partner limits assumed): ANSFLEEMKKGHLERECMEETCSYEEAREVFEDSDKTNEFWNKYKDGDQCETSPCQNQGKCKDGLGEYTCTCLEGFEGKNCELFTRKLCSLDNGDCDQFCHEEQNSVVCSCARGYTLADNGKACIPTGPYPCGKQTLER

Row | SMILES | IC50 [nM]
1 | CCNC(=O)C1CN(S(=O)(=O)c2ccc3c(Cl)c[nH]c3c2)CC(=O)N1CC1CCN(c2ccc(=O)n(C)n2)CC1 (centres unmarked) [Example 4, 4-(3-Chloro-1H-indole-6-sulfonyl)-1-[1-(1-methyl-6-oxo-1,6-dihydro-pyridazin-3-yl)-piperidin-4-ylmethyl]-6-oxo-piperazine-2-carboxylic acid ethylamide] | 5
2 | CC(C)OC(=O)C1CN(S(=O)(=O)c2ccc3c(Cl)c[nH]c3c2)CC(=O)N1CC1CCN(c2ccc(=O)n(C)n2)CC1 (centres unmarked) [Example 13, 4-(3-Chloro-1H-indole-6-sulfonyl)-1-[1-(1-methyl-6-oxo-1,6-dihydro-pyridazin-3-yl)-piperidin-4-ylmethyl]-6-oxo-piperazine-2-carboxylic acid isopropyl ester] | 2.3
